Source: ChEMBL document CHEMBL3046289, “Synthesis and in vitro antimicrobial activity of some newer quinazolinonesulfonamide linked hybrid heterocyclic entities derived from glycine” (2013)
Values after ≈ are worked out from the molar mass of the structure shown.

Legend:
Format in all cases: functional
Candida albicans = assay: Antifungal activity against Candida albicans MTCC 227 assessed as growth inhibition after 48 hr by broth microdilution method; conditions: MTCC 227, 48 h
Aspergillus niger = assay: Antifungal activity against Aspergillus niger MTCC 282 assessed as growth inhibition after 48 hr by broth microdilution method; conditions: MTCC 282, 48 h
Klebsiella pneumoniae = assay: Antibacterial activity against Klebsiella pneumoniae MTCC 139 assessed as growth inhibition after 24 hr by broth microdilution method; conditions: MTCC 139, 24 h
Pseudomonas aeruginosa = assay: Antibacterial activity against Pseudomonas aeruginosa MTCC 1688 assessed as growth inhibition after 24 hr by broth microdilution method; conditions: MTCC 1688, 24 h
Escherichia coli = assay: Antibacterial activity against Escherichia coli MTCC 443 assessed as growth inhibition after 24 hr by broth microdilution method; conditions: MTCC 443, 24 h
Bacillus cereus = assay: Antibacterial activity against Bacillus cereus MTCC 1305 assessed as growth inhibition after 24 hr by broth microdilution method; conditions: MTCC 1305, 24 h
Staphylococcus aureus = assay: Antibacterial activity against Staphylococcus aureus MTCC 2940 assessed as growth inhibition after 24 hr by broth microdilution method; conditions: MTCC 2940, 24 h

Row | SMILES | MIC (Candida albicans) [µg/mL] | MIC (Aspergillus niger) [µg/mL] | MIC (Klebsiella pneumoniae) [µg/mL] | MIC (Pseudomonas aeruginosa) [µg/mL] | MIC (Escherichia coli) [µg/mL] | MIC (Bacillus cereus) [µg/mL] | MIC (Staphylococcus aureus) [µg/mL]
1 | Nc1ccc(S(=O)(=O)NCc2nc3ccccc3c(=O)n2-c2ccccc2)cc1 | 100 (≈ 246 µM) | 90 (≈ 221 µM) | 95 (≈ 234 µM) | 85 (≈ 209 µM) | 80 (≈ 197 µM) | 95 (≈ 234 µM) | 85 (≈ 209 µM)
2 | CC(=O)Nc1ccc(S(=O)(=O)NCc2nc3ccccc3c(=O)n2-c2ccccc2)cc1 | 105 (≈ 234 µM) | 95 (≈ 212 µM) | 130 (≈ 290 µM) | 125 (≈ 279 µM) | 110 (≈ 245 µM) | 115 (≈ 256 µM) | 95 (≈ 212 µM)
3 | Cc1ccccc1-n1c(C)nc2ccccc2c1=O [METHAQUALONE] | 125 (≈ 499 µM) | 90 (≈ 360 µM) | 115 (≈ 459 µM) | 100 (≈ 400 µM) | 75 (≈ 300 µM) | 140 (≈ 559 µM) | 125 (≈ 499 µM)
4 | Nc1ccc(S(N)(=O)=O)cc1 [SULFANILAMIDE] | 60 (≈ 348 µM) | 50 (≈ 290 µM) | 80 (≈ 465 µM) | 65 (≈ 377 µM) | 55 (≈ 319 µM) | 55 (≈ 319 µM) | 50 (≈ 290 µM)
